The text below walks through data of patent US10011571B2, “Preparation method for aromatic heterocyclic compound used as selective JAK3 and/or JAK1 kinase inhibitor and application of aromatic heterocyclic compound” (SHENZHEN CHIPSCREEN BIOSCIENCES, LTD., priority 2014, dated 2018).

pIC50: −log10 of the molar value.

One test has as its system EPO/JAK2/STAT5a (UT-7). Put plainly: Intracellular activity assay, EPO induced STAT5 phosphorylation in UT-7/EPO. As to conditions: Homo sapiens, inhibition of STAT5 phosphorylation, EPO 10 ng/mL. Format: cell-based. The text has this:
In this experiment, western blot (WB) and flow cytometry are used to evaluate the intracellular activities of the test compounds by comparing the relative levels of the signals of phosphorylated and non-phosphorylated STATs in 5 cell models, including U937, THP-1, CTLL-2, UT-7/EPO and activated human periphery blood cell (hPBC). The primary antibody and secondary antibody used in WB hybridization in this experiment are purchased from Cell Signaling Company (http://www.cellsignal.com). The fluorescence-labeled antibodies used in flow cytometry are purchased from eBiosciences Company (http://www.ebioscience.com).
UT-7/EPO is a cell line formed from the marrow of a patient suffering from […] after cultured with EPO induction, and it has obvious response to cytokine EPO. The signal for EPO is transmitted via the homodimer of JAK2 and induces the phosphorylation of downstream STAT5, while a JAK inhibitor suppresses the phosphorylation of STAT5 by suppressing the activity of JAK2. The intracellular inhibitory activity of the compounds on JAK2 can be evaluated by detecting the change of the phosphorylation level of STAT5.
(1) Treatment by the compound: the experiment is carried out in a 6-well plate. […]
(2) Cell fixation and fluorescence labeling: the cells are fixed using paraformaldehyde (30 min), and subsequently treated for membrane permeability in chilled methanol (15 min). […]
(3) Detection by flow cytometry: the detection is carried out using Guava® easyCyte flow cytometer according to the instruction. The median fluorescent intensity (MFI) of a sample is detected using an appropriate cell population. On such a basis, the relative signal intensities are calculated for the phosphorylated STATs treated by the compounds at different concentrations by reference to the signal of the negative (with no factor stimulation) and the positive control (with both factor stimulation and solvent control) in the experiment, so that the IC50 of the compound for the inhibitory activity on STATs phosphorylation can be evaluated.

For a further test, the target named is Flt4 (Homo sapiens (Human), UniProt P35916). Put plainly: Eurofins IC50Profiler radiometric kinase assay, Flt4. The class given is biochemical. As to conditions: 9 semilog concentrations. An excerpt:
(§1) A proportion of the compounds of the present invention are subjected to kinase profile screening (KinaseProfiler™)) and enzymatic inhibitory activity (IC50Profiler™)) assay by entrusting Eurofins company (http://www.eurofins.com). Besides the kinases in the JAK family, the kinases that have been screened for their activity also include most Group 3F and Group 4 kinases (ITK, BLK, TBK1, VEGFRs, ERBBs, etc.), and blood system related kinases (Zhang J. et al. 2009, Nat. Rev. Cancer., 9: 28-39). The concentration of the test compound for kinase profile screening is 1 μM, and a gradient of 9 semilog concentration gradients are used to determine IC50. Detection is carried out according to standard procedure of Eurofins Company. Briefly, according to the requirements of different kinase reactions, 0.2 μL test compound (50 μM, dissolved in dimethyl sulfoxide (DMSO)) is added to reaction buffer containing specific kinase (the buffer system containing 20 mM MOPS, 1 mM EDTA, 0.01% Brij-35, 5% Glycerol, 0.1% β-mercaptoethanol, 1 mg/mL BSA, or 50 mM TRIS, 0.1 mM EGTA, 0.1 mM Na3VO4, 0.1% β-mercaptoethanol, 1 mg/mL BSA, based on the type of kinase used). Subsequently, a kinase specific substrate at a final concentration of 50 μM (specific substrate used for specific kinase), 10 mM Mg Acetate and isotope-labeled γ-^33P ATP (radio-activity of about 500 cpm/pmol) are sequentially added to a total volume of 10 μL for the reaction system. After incubation at room temperature for 40 min, the reaction is terminated by adding 3% phosphoric acid solution. The mixture is then transferred to a filter-type low temperature spray dryer (P30 filtermat), and washed by 75 mM phosphoric acid solution for 3 times and by methanol once. After drying, radio-activity is detected. For specific procedure, see the standard procedure provided by Eurofins Company: http://www.eurofins.com/media/9724077/kinaseprofiler_assay_protocol_guide_eurofins_v64.pdf).

A further test deals with BLK (Homo sapiens, UniProt P51451). Put plainly: Eurofins IC50Profiler radiometric kinase assay, BLK. Format: biochemical. As to conditions: 9 semilog concentrations.
Source text: as §1

Another test concerns the target JAK3 (Homo sapiens (Human), UniProt P52333). The test can be described thus: Eurofins IC50Profiler radiometric kinase assay, JAK3. The class given is biochemical. As to conditions: 9 semilog concentrations.
Source text: as §1

The target in the next test is Flt1 (Homo sapiens (Human), UniProt P17948). Put plainly: Eurofins IC50Profiler radiometric kinase assay, Flt1. As to conditions: 9 semilog concentrations. Format: biochemical.
Source text: as §1

In the next test the target is TBK1 (Homo sapiens (Human), UniProt Q9UHD2). The test can be described thus: Eurofins IC50Profiler radiometric kinase assay, TBK1. The class given is biochemical. As to conditions: 9 semilog concentrations.
Source text: as §1

The target of another test is JAK1 (Homo sapiens (Human), UniProt P23458). Put plainly: Eurofins IC50Profiler radiometric kinase assay, JAK1. As to conditions: 9 semilog concentrations. The class given is biochemical.
Source text: as §1

Chain of JAK1 (P23458 whole entry, species assumed): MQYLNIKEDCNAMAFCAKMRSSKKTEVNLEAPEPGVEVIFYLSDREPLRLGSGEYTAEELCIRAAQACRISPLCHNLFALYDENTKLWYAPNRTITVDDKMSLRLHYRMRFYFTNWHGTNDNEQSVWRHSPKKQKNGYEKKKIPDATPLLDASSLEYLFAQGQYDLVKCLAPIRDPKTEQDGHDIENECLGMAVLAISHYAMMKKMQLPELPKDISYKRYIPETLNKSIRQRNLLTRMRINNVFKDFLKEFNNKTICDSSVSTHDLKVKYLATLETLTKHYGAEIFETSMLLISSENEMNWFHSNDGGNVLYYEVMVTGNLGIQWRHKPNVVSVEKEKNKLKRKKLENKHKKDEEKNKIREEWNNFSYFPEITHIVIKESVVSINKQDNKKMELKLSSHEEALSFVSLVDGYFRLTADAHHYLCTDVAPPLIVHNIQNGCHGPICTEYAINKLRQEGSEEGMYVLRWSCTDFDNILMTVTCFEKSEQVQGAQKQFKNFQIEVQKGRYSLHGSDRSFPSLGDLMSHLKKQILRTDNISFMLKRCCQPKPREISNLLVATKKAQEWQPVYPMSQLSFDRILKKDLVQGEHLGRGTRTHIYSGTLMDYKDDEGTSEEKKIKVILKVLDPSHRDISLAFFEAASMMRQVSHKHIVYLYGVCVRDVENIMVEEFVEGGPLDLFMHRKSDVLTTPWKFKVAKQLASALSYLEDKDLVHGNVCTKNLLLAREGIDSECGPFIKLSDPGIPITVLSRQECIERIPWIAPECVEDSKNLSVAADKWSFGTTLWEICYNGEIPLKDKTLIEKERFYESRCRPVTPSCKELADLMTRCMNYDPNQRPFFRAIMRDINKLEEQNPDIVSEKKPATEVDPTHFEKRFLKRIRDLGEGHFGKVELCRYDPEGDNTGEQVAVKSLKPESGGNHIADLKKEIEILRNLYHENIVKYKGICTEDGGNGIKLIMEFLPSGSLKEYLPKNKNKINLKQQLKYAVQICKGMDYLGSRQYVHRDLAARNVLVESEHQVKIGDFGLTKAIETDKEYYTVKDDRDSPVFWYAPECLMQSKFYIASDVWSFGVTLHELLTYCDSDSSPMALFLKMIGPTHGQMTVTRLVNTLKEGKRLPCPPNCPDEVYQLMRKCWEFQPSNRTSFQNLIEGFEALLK
Chain of JAK3 (P52333 whole entry, species assumed): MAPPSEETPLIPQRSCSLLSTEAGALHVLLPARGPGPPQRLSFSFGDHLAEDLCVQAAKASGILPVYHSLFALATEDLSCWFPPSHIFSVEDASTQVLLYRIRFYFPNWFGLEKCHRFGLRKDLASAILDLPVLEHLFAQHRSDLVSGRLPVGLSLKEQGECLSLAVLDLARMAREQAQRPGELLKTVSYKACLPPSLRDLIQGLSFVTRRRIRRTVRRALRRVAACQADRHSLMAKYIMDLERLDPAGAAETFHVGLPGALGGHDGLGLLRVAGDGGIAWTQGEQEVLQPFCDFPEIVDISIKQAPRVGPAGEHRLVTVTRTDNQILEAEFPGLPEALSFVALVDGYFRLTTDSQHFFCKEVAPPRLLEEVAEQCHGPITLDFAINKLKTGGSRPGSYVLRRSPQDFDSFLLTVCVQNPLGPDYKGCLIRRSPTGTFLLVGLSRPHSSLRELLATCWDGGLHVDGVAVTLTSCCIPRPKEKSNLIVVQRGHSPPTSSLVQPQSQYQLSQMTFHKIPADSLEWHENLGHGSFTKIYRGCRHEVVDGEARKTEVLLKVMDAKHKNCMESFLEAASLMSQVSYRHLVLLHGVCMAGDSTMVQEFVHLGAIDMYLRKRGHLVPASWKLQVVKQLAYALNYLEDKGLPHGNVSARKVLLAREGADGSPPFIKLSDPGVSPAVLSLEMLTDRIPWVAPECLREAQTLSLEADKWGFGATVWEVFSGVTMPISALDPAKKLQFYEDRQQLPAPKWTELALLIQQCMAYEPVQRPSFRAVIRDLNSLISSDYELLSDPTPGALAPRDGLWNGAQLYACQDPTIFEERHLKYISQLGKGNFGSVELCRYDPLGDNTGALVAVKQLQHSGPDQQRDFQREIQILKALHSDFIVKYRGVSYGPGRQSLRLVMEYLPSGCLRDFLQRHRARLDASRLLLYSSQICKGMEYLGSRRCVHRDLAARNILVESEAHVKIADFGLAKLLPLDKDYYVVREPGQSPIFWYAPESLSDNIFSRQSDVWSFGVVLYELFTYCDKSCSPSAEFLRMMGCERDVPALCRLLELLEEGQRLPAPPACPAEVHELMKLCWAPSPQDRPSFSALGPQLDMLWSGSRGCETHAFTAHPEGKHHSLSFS
Chain of BLK (P51451 2-505 limits assumed): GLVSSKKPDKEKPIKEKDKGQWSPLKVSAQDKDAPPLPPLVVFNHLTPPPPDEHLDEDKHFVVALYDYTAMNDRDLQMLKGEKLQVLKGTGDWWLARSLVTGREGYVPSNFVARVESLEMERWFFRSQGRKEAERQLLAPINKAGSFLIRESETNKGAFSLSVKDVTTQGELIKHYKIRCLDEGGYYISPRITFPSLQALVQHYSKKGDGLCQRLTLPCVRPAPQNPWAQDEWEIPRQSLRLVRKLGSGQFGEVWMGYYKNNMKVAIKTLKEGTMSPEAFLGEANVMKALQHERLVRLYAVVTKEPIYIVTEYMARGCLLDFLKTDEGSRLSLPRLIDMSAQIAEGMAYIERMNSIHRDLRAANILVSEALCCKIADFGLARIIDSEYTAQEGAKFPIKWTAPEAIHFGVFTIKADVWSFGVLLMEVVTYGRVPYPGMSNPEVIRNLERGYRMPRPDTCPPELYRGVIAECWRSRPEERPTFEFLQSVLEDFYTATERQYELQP
Chain of Flt4 (P35916 25-1363, species assumed): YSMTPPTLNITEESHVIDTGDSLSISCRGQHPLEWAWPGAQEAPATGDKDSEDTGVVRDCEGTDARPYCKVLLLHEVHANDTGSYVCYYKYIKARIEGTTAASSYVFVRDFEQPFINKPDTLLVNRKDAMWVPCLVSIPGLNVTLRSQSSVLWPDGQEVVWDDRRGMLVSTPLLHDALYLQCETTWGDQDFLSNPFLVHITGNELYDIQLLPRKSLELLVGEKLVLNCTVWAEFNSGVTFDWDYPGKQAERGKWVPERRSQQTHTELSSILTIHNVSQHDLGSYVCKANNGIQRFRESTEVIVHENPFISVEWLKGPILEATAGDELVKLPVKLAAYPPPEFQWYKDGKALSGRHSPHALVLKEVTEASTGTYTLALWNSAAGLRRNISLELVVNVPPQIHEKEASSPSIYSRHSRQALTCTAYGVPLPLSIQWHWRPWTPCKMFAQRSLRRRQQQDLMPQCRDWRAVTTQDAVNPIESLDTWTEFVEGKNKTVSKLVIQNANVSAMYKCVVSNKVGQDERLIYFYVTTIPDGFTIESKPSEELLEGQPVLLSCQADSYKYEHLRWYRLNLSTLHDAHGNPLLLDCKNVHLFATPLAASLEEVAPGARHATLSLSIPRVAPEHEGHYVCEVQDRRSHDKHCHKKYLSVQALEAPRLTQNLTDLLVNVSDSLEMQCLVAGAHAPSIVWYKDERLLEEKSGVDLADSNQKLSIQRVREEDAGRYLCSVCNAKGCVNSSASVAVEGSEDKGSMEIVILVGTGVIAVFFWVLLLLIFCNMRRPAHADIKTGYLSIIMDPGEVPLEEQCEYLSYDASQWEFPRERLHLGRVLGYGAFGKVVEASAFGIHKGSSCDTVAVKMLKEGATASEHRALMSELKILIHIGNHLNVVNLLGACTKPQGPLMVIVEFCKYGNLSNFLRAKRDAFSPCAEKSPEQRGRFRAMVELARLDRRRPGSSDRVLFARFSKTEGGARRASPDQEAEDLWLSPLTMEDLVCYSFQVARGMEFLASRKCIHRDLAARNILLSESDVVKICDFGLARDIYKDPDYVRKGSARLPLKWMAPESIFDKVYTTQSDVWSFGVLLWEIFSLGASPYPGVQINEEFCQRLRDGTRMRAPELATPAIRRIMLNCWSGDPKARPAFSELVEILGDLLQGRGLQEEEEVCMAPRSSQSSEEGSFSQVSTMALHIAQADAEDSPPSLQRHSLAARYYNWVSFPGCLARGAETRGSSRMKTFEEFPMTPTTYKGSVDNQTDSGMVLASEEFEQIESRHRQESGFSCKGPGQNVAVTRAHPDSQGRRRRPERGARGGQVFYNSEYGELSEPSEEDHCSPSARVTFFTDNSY
Chain of TBK1 (Q9UHD2 whole entry, species assumed): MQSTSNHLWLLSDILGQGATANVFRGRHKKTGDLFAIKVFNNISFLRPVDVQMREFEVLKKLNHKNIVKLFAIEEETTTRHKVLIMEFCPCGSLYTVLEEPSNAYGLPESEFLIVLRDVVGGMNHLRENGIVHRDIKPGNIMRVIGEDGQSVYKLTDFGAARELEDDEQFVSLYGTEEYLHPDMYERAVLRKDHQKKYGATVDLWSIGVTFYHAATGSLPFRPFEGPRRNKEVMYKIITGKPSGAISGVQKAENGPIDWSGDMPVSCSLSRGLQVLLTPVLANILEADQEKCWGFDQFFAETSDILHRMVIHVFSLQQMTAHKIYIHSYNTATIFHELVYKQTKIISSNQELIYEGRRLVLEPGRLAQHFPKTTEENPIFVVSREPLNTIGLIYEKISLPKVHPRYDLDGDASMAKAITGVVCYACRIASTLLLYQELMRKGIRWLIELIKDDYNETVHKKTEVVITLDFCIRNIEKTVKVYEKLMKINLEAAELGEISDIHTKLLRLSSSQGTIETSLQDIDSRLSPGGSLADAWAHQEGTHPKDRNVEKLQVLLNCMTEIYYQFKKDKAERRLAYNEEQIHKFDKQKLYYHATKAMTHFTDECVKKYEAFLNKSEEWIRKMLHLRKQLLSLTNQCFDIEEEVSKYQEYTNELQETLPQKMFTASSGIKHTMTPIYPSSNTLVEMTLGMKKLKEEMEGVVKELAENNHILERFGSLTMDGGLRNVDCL

As for `C=CC(=O)N(C)c1cc(Nc2ncc(Cl)c(NCCCNC(=O)c3ccc(C#N)cc3)n2)ccc1F` [Example 7, N-(3-(5-chloro-2-(4-fluoro-3-(N-methylacrylamido)phenylamino)pyrimidinyl-4-amino)propyl)-4-cyano-benzamide], the pIC50 in the test with EPO/JAK2/STAT5a (UT-7) was less than 5.52; against Flt4, 6.97; against BLK, 6.54; on JAK3, 7.96; at Flt1, 6.16; against TBK1 it was 6.79. The same compound showed a pIC50 at JAK1 of 6.98.

With `C=CC(=O)N(C)c1cc(Nc2ncc(Cl)c(NCCCNC(=O)c3ccc(C(F)(F)F)cc3)n2)ccc1F` [Example 22, N-(3-(5-chloro-2-(4-fluoro-3-(N-methylacrylamido)phenylamino)pyrimidinyl-4-amino)propyl)-4-trifluoromethylbenzamide], the pIC50 with EPO/JAK2/STAT5a (UT-7) was less than 5.52; at Flt4 it was less than 5.00; at BLK, 5.78; against JAK3 it was 7.68; against Flt1 it was less than 5.00; against TBK1 it was less than 5.00. Further, the pIC50 at JAK1 was 6.55.

As for `C=CC(=O)N(C)c1cc(Nc2ncc(Cl)c(NCCCNC(=O)c3ccc(F)cc3)n2)ccc1F` [Example 23, N-(3-(5-chloro-2-(4-fluoro-3-(N-methylacrylamido)phenylamino)pyrimidinyl-4-amino)propyl)-4-fluorobenzamide], the pIC50 with EPO/JAK2/STAT5a (UT-7) is less than 5.52; at Flt4, 7.38; at BLK, 6.07; against JAK3, 7.96; against Flt1, 5.91; against TBK1, 6.18. The pIC50 against JAK1 was 6.76.
